Assay results reported in patent publication US20130267485A1, “Pharmaceutical Combination of Resveratrol and Progestin to Treat and/or Prevent Myoma and/or Endometriosis” (LIBBS FARMACEUTICA LTDA., priority 2010, published 2013).

What was measured:
[1] = tested on: stromal cells extracted from human endometrium tissue; test: Antiproliferative activity, MTT colorimetric method; type: cell-based
Method: Negative control: stromal cells of endometrioma incubated with 200 μL of culture medium supplemented with 10% fetal bovine serum and 0.1% DMSO. After calculating the concentrations, the test substances were diluted in 100% DMSO, with stock solution concentrations being of 1 mM to ethinyl estradiol and 10 mM to Dienogest, Resveratrol and Danazol. The use solution was obtained by 1:10 serial dilutions in culture medium supplemented with 10% of fetal bovine serum and 1% of antibiotic/antimycotic. The final concentration of DMSO in the solutions was 0.1%. Endometrium tissues were obtained from 2 voluntary donors by means of videolaparoscopy, by signing the respective terms of consent and ages between 18 and 45 years. A fragment was taken from tissue samples for histological confirmation of endometriosis and the remaining was packaged in sterile flask containing culture medium DMEM/Ham's F12 (Gibco®) with ampicillin and streptomycin (Merck®) antibiotics, and they were taken immediately to the laboratory. […] The resulting suspension was centrifuged and re-suspended in culture medium, and it was then transferred to a 25 cm^2 culture bottle. The purity of cell cultures was tested by immunocytochemistry using rabbit anti-human vimentin monoclonal primary antibody (Spring Bioscience TM) and rabbit anti-IgG secondary polyclonal antibody from goat labeled with Texas Red (Invitrogen®). The cells were maintained and amplified in DMEM/Ham's F12 (Gibco®) 10% FBS medium, with […] of antibiotics ampicillin and streptomycin in culture bottle until reaching the sub-confluence (90% of confluence), and then they were transferred to 96-well plates for conducting the tests for assessing antiproliferative activity. Cells were transferred to 96-well plates to a density of 10,000 cells per well in culture medium with 10% of SBF and incubated during 48 hours. […] Then, MTT tetrazolium salt was added (Invitrogen) at a concentration of 1 mg/mL, according to the incubation periods described in the manufacturer's manual. Cell proliferation was indirectly evaluated using the MTT colorimetric method (Invitrogen) and absorbance measurement at 540 nm in SpectraMax M2 plate reader-Molecular Devices with SoftMax […].2 software. By following this procedure, results of antiproliferative activity. of drugs on cells can be obtained. Data were calculated with the ratio of values obtained from cultures exposed (and in different concentrations, combined or not) and cultures not exposed to drugs. The reference of 100% of cell viability, cells cultured without the presence of drugs, was considered.

[2] = tested on: patients with intramural myoma, adenomyosis and endometriosis; test: Uterus volume before and after treatment, 30 patients (plus comparative resveratrol-only patients); type: in vivo, human
Method: An experiment was carried out with 30 patients treated with combinations of drospirenone, ethinyl estradiol and resveratrol, as well as with combinations of gestinol and resveratrol, evaluating the volume of the uterus before and after the treatment. In the comparative studies with three patients A, B and C, showing intramural myoma treated only with resveratrol, there was observed a 32% increase for patient A, treated during 12 months; 27% increase for patient B, treated during 3 months; and 22% increase for patient C, treated during 1 month.

## Oc1ccc(/C=C/c2cc(O)cc(O)c2)cc1 [Resveratrol, trans-3,5,4″-trihidroxystilbene]
[1]; resveratrol alone 1.980 ng/mL, 100% = cells without drugs
  Proliferation: 94.8%
[1]; resveratrol alone 19.800 ng/mL, 100% = cells without drugs
  Proliferation: 90.6%
[1]; resveratrol alone 197.970 ng/mL (concentration used in the combination)
  Proliferation: 94.7%
[1]; resveratrol alone 1979.130 ng/mL
  Proliferation: 93.3%
[1]; resveratrol alone 19797.13 ng/mL
  Proliferation: 91.1%
[2]; patient A, treated during 12 months
  increase (intramural myoma, treated only with resveratrol): 32%
[2]; patient B, treated during 3 months
  increase (intramural myoma, treated only with resveratrol): 27%
[2]; patient C, treated during 1 month
  increase (intramural myoma, treated only with resveratrol): 22%
